In data set [1] the target is T1, acid ceramidase (Homo sapiens, UniProt Q13510).
T1 construct: Cell lysates overexpressing acid ceramidase were used as the enzyme source; expressed in transfected cells
T1 sequence (Q13510 22-395): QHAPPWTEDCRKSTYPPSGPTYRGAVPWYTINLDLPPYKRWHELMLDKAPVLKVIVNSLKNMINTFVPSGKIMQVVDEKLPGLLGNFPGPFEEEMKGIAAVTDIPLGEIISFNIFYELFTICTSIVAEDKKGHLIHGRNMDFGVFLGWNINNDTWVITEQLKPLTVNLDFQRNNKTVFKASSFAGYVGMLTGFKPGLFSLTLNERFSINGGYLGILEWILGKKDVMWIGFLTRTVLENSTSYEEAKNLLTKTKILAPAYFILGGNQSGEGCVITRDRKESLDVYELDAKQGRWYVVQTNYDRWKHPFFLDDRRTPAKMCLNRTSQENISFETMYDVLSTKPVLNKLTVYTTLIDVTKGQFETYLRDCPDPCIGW
Put plainly: Acid ceramidase inhibition, biochemical fluorescent assay with cell lysates overexpressing acid ceramidase, substrate Rbm14-12. Conditions: substrate Rbm14-12 6.3 μM. In short, it runs like this:
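Lysate of cells overexpressing acid ceramidase (10 μg protein) preincubated with compound dose series 1 hr at RT in 25 mM NaAC, 100 mM NaCl, pH 4.5, then reacted 1 hr with 6.3 μM Rbm14-12. Stopped with NaIO4/glycine buffer pH 10.6, fluorescence ex360/em446; IC50 by four-parameter fit.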

A short description of data set [2]: Compound solubility in water.
Where [3] appears, read: pH 4.5, 1 hr preincubation at RT.

Converted amounts (≈) assume the structure as drawn.

Turning to `CCCCNC(=O)n1c(OCC)nc2c(OC)cccc21` [Example 94, N-Butyl-2-ethoxy-4-methoxy-1H-benzo[d]imidazole-1-carboxamide], the IC50 in data set [1] (setting [3]) fell in the range of 200 to 1000 nM. In data set [2], this compound returned a solubility of 11.2 µg/mL (≈ 38.4 µM).

`CC(=O)N1CCN(c2cccc3c2ncn3C(=O)NCCC(C)C)CC1` [Example 203, 4-(4-Acetylpiperazin-1-yl)-N-isopentyl-1H-benzo[d]imidazole-1-carboxamide]: the IC50 in data set [1] (pH 4.5) was < 200 nM. Besides, the concentration in solution in data set [2] (solubility) was 26 µg/mL (≈ 72.7 µM).

With `CC(C)CNC(=O)n1cnc2cc(-c3cncs3)ccc21` [Example 126a, N-iso-Butyl-5-(thiazol-5-yl)-1H-benzo[d]imidazole-1-carboxamide], the IC50 in data set [1] (setting [3]) is < 200 nM. The compound further registered a solubility in data set [2] of 6 µg/mL (≈ 20 µM).

In the case of `CC(C)CCNC(=O)n1cnc2c(N3CCN(C4CCOCC4)CC3)cccc21` [Example 155, N-iso-Pentyl-4-(4-(tetrahydro-2H-pyran-4-yl)-piperazin-1-yl)-1H-benzo[d]imidazole-1-carboxamide], in data set [1] (setting [3]), the IC50 was 200 to 1000 nM. In data set [2], this compound returned a solubility of 30 µg/mL (≈ 75.1 µM).

As to `CCOc1nc2ccc(N3CCOCC3)cc2n1C(=O)NCCCc1ccccc1` [Example 189b, 2-ethoxy-6-morpholino-N-(3-phenylpropyl)-1H-benzo[d]imidazole-1-carboxamide], the 50% inhibitory concentration (IC50) in data set [1] (pH 4.5) was < 200 nM. In data set [2], the solubility stood at 3 µg/mL (≈ 7.34 µM).

As for `O=C(NCCCc1ccccc1)n1cnc2c(CCCN3CCC3)cccc21` [Example 262, 4-(3-(Azetidin-1-yl)propyl)-N-(3-phenylpropyl)-1H-benzo[d]imidazole-1-carboxamide], the half-maximal inhibitory concentration (IC50) in data set [1] (pH 4.5) was < 200 nM. Moreover, the concentration in solution in data set [2] (solubility) came to 21 µg/mL (≈ 55.8 µM).

Regarding `CSc1nc2cc(-c3cccnc3)cnc2n1C(=O)NCC(C)C` [Example 125], the concentration for half-maximal inhibition (IC50) in data set [1] (setting [3]) lay in the range of 200 to 1000 nM. This compound registered a solubility in data set [2] of 6 µg/mL (≈ 17.6 µM).

As to `COc1nc2cc(N3CCOCC3)ccc2n1C(=O)NCCCOC(F)(F)F` [Example 233b, 2-methoxy-5-morpholino-N-(3-(trifluoromethoxy)propyl)-1H-benzo[d]imidazole-1-carboxamide], in data set [1] (pH 4.5), the IC50 lay in the range of 200 to 1000 nM. The compound also had a solubility in data set [2] of 29 µg/mL (≈ 72.1 µM).

`CCCCNC(=O)n1c(OC)nc2c(OC)cccc21` [Example 100, N-Butyl-2,4-dimethoxy-1H-benzo[d]imidazole-1-carboxamide] gave an IC50 in data set [1] (setting [3]) of 200 to 1000 nM. The compound also had a solubility in data set [2] of 28 µg/mL (≈ 101 µM).

In the case of `CN1CC2CC1CN2c1cccc2c1ncn2C(=O)NCCC1CCC(F)(F)C1` (stereo not drawn) [Example 293, N-(2-(3,3-difluorocyclopentyl)ethyl)-4-(5-methyl-2,5-diazabicyclo[2.2.1]heptan-2-yl)-1H-benzo[d]imidazole-1-carboxamide], the IC50 in data set [1] (pH 4.5) fell in the range of 200 to 1000 nM. For the same compound, the solubility in data set [2] worked out at 39 µg/mL (≈ 96.7 µM).

Turning to `CN(C)CC1CN(c2cccc3c2ncn3C(=O)NCCCc2ccccc2)C1` [Example 272, 4-(3-((Dimethylamino)methyl)azetidin-1-yl)-N-(3-phenylpropyl)-1H-benzo[d]imidazole-1-carboxamide], in data set [1] (pH 4.5), the IC50 was < 200 nM. In addition, the concentration in solution in data set [2] (solubility) came to 21 µg/mL (≈ 53.6 µM).

In data set [1] (pH 4.5), `CC(C)CCNC(=O)n1cnc2c(N3CCO[C@H](C(C)C)C3)cccc21` [Example 172b, (R)—N-iso-pentyl-4-(2-iso-propylmorpholino)-1H-benzo[d]imidazole-1-carboxamide] returned a half-maximal inhibitory concentration (IC50) of 200 to 1000 nM. Also, the concentration in solution in data set [2] (solubility) was 4 µg/mL (≈ 11.2 µM).

In turn, `CCOc1nc2ncccc2n1C(=O)NCCC(C)C` [Example 114, 2-Ethoxy-N-iso-pentyl-1H-imidazo[4,5-b]pyridine-1-carboxamide] displayed an IC50 in data set [1] (setting [3]) of 200 to 1000 nM. The solubility in data set [2] came out at 16.8 µg/mL (≈ 60.8 µM).

For the compound `CC(C)C#CCNC(=O)n1cnc2c(N3CC4CC3CN4C)cccc21` (stereo not drawn) [Example 301, 4-(5-Methyl-2,5-diazabicyclo[2.2.1]heptan-2-yl)-N-(4-methylpent-2-ynyl)-1H-benzo[d]imidazole-1-carboxamide], in data set [1] (pH 4.5), the IC50 fell in the range of 200 to 1000 nM. Moreover, in data set [2], the concentration in solution (solubility) came to 34 µg/mL (≈ 96.7 µM).

Take `O=C(NCCCc1ccccc1)n1cnc2c(N3CC(C(F)(F)F)C3)cccc21` [Example 273, N-(3-Phenylpropyl)-4-(3-(trifluoromethyl)azetidin-1-yl)-1H-benzo[d]imidazole-1-carboxamide]: in data set [1] (pH 4.5), the IC50 is < 200 nM. In data set [2], this compound gave a solubility of 0.2 µg/mL (≈ 0.497 µM).

As to `O=C(NCCOc1ccccc1)n1cnc2ccc(C(F)(F)F)cc21` [Example 46b, N-(2-phenoxyethyl)-6-(trifluoromethyl)-1H-benzo[d]imidazole-1-carboxamide], the IC50 in data set [1] (setting [3]) was < 200 nM. This compound gave a solubility in data set [2] of 0.3 µg/mL (≈ 0.859 µM).

The compound `COc1nc2ccc(N3CCOCC3)cc2n1C(=O)NCC1CC1Cc1ccccc1` (stereo not drawn) [Example 231a, N-((2-benzylcyclopropyl)methyl)-2-methoxy-6-morpholino-1H-benzo[d]imidazole-1-carboxamide] registered an IC50 in data set [1] (pH 4.5) of 200 to 1000 nM. Besides, in data set [2], the concentration in solution (solubility) came to 14 µg/mL (≈ 33.3 µM).

`O=C(NCCc1ccccc1)n1cnc2ccc(-c3cccnc3)cc21` [Example 10b, N-phenethyl-6-(pyridin-3-yl)-1H-benzo[d]imidazole-1-carboxamide]: the IC50 in data set [1] (setting [3]) is < 200 nM. Moreover, the solubility in data set [2] stood at 0.6 µg/mL (≈ 1.75 µM).

Turning to `CNC1CCN(c2cccc3c2ncn3C(=O)NCCCc2ccccc2)C1` (stereo not drawn) [Example 268, 4-(3-(Methylamino)pyrrolidin-1-yl)-N-(3-phenylpropyl)-1H-benzo[d]imidazole-1-carboxamide], in data set [1] (pH 4.5), the IC50 is < 200 nM. In data set [2], the concentration in solution (solubility) came to 17 µg/mL (≈ 45 µM).

In data set [1] (pH 4.5), `CC(C)CCNC(=O)n1cnc2c(N3CCN(C)C(C)C3)cccc21` (stereo not drawn) [Example 197, 4-(3,4-Dimethylpiperazin-1-yl)-N-iso-pentyl-1H-benzo[d]imidazole-1-carboxamide] returned an IC50 of 200 to 1000 nM. In data set [2], this compound displayed a solubility of 28 µg/mL (≈ 81.5 µM).

`CC(C)CCNC(=O)n1cnc2ccc(-c3cncnc3)cc21` [Example 103a, N-iso-Pentyl-6-(pyrimidin-5-yl)-1H-benzo[d]imidazole-1-carboxamide]: the IC50 in data set [1] (setting [3]) is < 200 nM. The compound also registered a solubility in data set [2] of 14.3 µg/mL (≈ 46.2 µM).

As to `CC(C)CCNC(=O)n1cnc2c(N3CCN(C)CC3=O)cccc21` [Example 162, N-iso-Pentyl-4-(4-methyl-2-oxopiperazin-1-yl)-1H-benzo[d]imidazole-1-carboxamide], the IC50 in data set [1] (pH 4.5) is > 1000 nM. The compound further showed a solubility in data set [2] of 18 µg/mL (≈ 52.4 µM).

As to `O=C(NCCc1ccccc1)n1cnc2cc(-c3cncnc3)ccc21` [Example 8a, N-Phenethyl-5-(pyrimidin-5-yl)-1H-benzo[d]imidazole-1-carboxamide], the IC50 in data set [1] (setting [3]) was < 200 nM. Besides, the solubility in data set [2] came out at 3.7 µg/mL (≈ 10.8 µM).

`COc1nc2c(C3CCN(C)CC3)cccc2n1C(=O)NCCc1ccccc1` [Example 33, 2-Methoxy-4-(1-methylpiperidin-4-yl)-N-phenethyl-1H-benzo[d]imidazole-1-carboxamide]: in data set [1] (setting [3]), the IC50 lay within 200 to 1000 nM. Further, the solubility in data set [2] was found to be 27 µg/mL (≈ 68.8 µM).

As to `COc1nc2cc(F)c(N3CCOCC3)cc2n1C(=O)NCCOc1ccccc1` [Example 335a, 5-Fluoro-2-methoxy-6-morpholino-N-(2-phenoxyethyl)-1H-benzo[d]imidazole-1-carboxamide], the IC50 in data set [1] (setting [3]) was < 200 nM. In data set [2], this compound gave a solubility of 1 µg/mL (≈ 2.41 µM).

`COc1ccc2c(c1)ncn2C(=O)NCCc1ccccc1` [Example 25a, 5-Methoxy-N-phenethyl-1H-benzo[d]imidazole-1-carboxamide]: the IC50 in data set [1] (setting [3]) is < 200 nM. This compound yielded a solubility in data set [2] of 2.6 µg/mL (≈ 8.8 µM).

In the case of `COc1nc2cc(N3CCOCC3)ccc2n1C(=O)NCCCc1ccc(F)cc1F` [Example 224b, N-(3-(2,4-difluorophenyl)propyl)-2-methoxy-5-morpholino-1H-benzo[d]-imidazole-1-carboxamide], the IC50 in data set [1] (pH 4.5) is < 200 nM. In data set [2], this compound displayed a solubility of 12 µg/mL (≈ 27.9 µM).

With `CC(C)CCNC(=O)n1cnc2c(N3CCN(C4CC4)CC3)cccc21` [Example 147, 4-(4-Cyclopropylpiperazin-1-yl)-N-iso-pentyl-1H-benzo[d]imidazole-1-carboxamide], the IC50 in data set [1] (setting [3]) lay within 200 to 1000 nM. In data set [2], this compound gave a solubility of 14 µg/mL (≈ 39.4 µM).

`COc1nc2c(N3CCOCC3)cncc2n1C(=O)NCCC(C)C` [Example 211, N-iso-Pentyl-2-methoxy-7-morpholino-3H-imidazo[4,5-c]pyridine-3-carboxamide]: in data set [1] (pH 4.5), the IC50 was < 200 nM. This compound also showed a solubility in data set [2] of 26 µg/mL (≈ 74.8 µM).

On to `CCOc1nc2c(F)cccc2n1C(=O)NCCc1ccccc1` [Example 92, 2-Ethoxy-4-fluoro-N-phenethyl-1H-benzo[d]imidazole-1-carboxamide], for which the IC50 in data set [1] (setting [3]) was < 200 nM. This compound also returned a solubility in data set [2] of 1.2 µg/mL (≈ 3.67 µM).

For the compound `CN1CC(N2CC3CC2CN3c2cccc3c2ncn3C(=O)NCCOc2ccccc2)C1` (stereo not drawn) [Example 328, 4-(5-(1-Methylazetidin-3-yl)-2,5-diazabicyclo[2.2.1]heptan-2-yl)-N-(2-phenoxyethyl)-1H-benzo[d]imidazole-1-carboxamide], the 50% inhibitory concentration (IC50) in data set [1] (pH 4.5) was < 200 nM. In data set [2], this compound came in with a solubility of 41 µg/mL (≈ 91.8 µM).

In the case of `CC(C)C#CCNC(=O)n1cnc2c(N3CCN(C)CC3)cccc21` [Example 280, N-(4-Methylpent-2-ynyl)-4-(4-methylpiperazin-1-yl)-1H-benzo[d]imidazole-1-carboxamide], in data set [1] (pH 4.5), the IC50 was < 200 nM. The compound further had a solubility in data set [2] of 16 µg/mL (≈ 47.1 µM).

Take `CCOc1nc2ncccc2n1C(=O)NCCCc1ccccc1` [Example 91a, 2-Ethoxy-N-(3-phenylpropyl)-1H-imidazo[4,5-b]pyridine-1-carboxamide]: the IC50 in data set [1] (setting [3]) is < 200 nM. Moreover, the concentration in solution in data set [2] (solubility) came to 7 µg/mL (≈ 21.6 µM).

The record behind these values is patent US20220380319A1 (Bial - R&D Investments, S.A., priority 2019, published 2022).
